ChEMBL document CHEMBL3885861, “Open TG-GATES”

Organism: Rattus norvegicus
Experiment: Open TG-GATES - Regimen: Single
Type: toxicity, organism-based, Sprague-Dawley
Design: regimen Single, gender Male, age 6 weeks
Details: in vivo, po, 0 mg/kg, route gavage, dose level Control; for APTT / Bas / Eos / Fbg / Hb / Ht / Lym / MCH / MCHC / MCV / Mono / Neu / PT / Plat / RBC / Ret / WBC: tissue Blood; for KIDNEY_L / KIDNEY_R / KIDNEY_TOTAL: tissue Kidney; for LIVER: tissue Liver; for A/G / ALP / ALT / AST / BUN / CRE / Ca / Cl / DBIL / GLC / IP / K / LDH / Na / PL / RALB / TBIL / TC / TG / TP / gamma-GTP: tissue Plasma

`NC1=NC(=O)C(c2ccccc2)O1` (configuration not stated) [PEMOLINE] was tested, and the TERMINAL_BW (3 h) was 210.7 g, the APTT (3 h) was 17.2 s and the Bas (3 h) was 0%. For the same compound, the Eos (3 h) was 0.8%, the Fbg (3 h) was 266 mg/dL and the Hb (3 h) was 13.1 g/dL. The Ht (3 h) was 38.2%, the Lym (3 h) was 78.2% and the MCH (3 h) was 21.6 pg. The MCHC (3 h) was 34.3%, the MCV (3 h) was 62.9 fL and the Mono (3 h) was 3.8%. It also gave a Neu (3 h) of 16.6%, a PT (3 h) of 13.4 s and a Plat (3 h) of 113.2 x10_4/uL. It also gave an RBC (3 h) of 609.4 x10_4/ul, a Ret (3 h) of 9.5% and a WBC (3 h) of 87.4 x10_2/uL. It also gave a KIDNEY_L (3 h) of 0.9 g, a KIDNEY_R (3 h) of 1 g and a KIDNEY_TOTAL (3 h) of 1.9 g. It also gave an LIVER (3 h) of 9.1 g, an A/G (3 h) of 1 and an ALP (3 h) of 1454.8 IU/L. The ALT (3 h) was 44.8 IU/L, the AST (3 h) was 77 IU/L and the BUN (3 h) was 9.8 mg/dL. For the same compound, the CRE (3 h) was 0.2 mg/dL, the Ca (3 h) was 10.7 mg/dL and the Cl (3 h) was 104.2 meq/L. It also gave a DBIL (3 h) of 0.014 mg/dL, a GLC (3 h) of 175.2 mg/dL and an IP (3 h) of 8.8 mg/dL. It also gave a K (3 h) of 4 meq/L, an LDH (3 h) of 69.6 IU/L and a Na (3 h) of 139.8 meq/L. For the same compound, the PL (3 h) was 127 mg/dL, the RALB (3 h) was 2.6 g/dL and the TBIL (3 h) was 0.044 mg/dL. It also gave a TC (3 h) of 78 mg/dL, a TG (3 h) of 40.4 mg/dL and a TP (3 h) of 5.3 g/dL. For the same compound, the gamma-GTP (3 h) was 1.2 IU/L, the TERMINAL_BW (6 h) was 209.5 g and the APTT (6 h) was 17.2 s. For the same compound, the Bas (6 h) was 0%, the Eos (6 h) was 1% and the Fbg (6 h) was 286.2 mg/dL. For the same compound, the Hb (6 h) was 13.3 g/dL, the Ht (6 h) was 39.1% and the Lym (6 h) was 77.6%. For the same compound, the MCH (6 h) was 22.4 pg, the MCHC (6 h) was 34.1% and the MCV (6 h) was 65.9 fL. The Mono (6 h) was 3%, the Neu (6 h) was 18% and the PT (6 h) was 13.2 s. It also gave a Plat (6 h) of 117 x10_4/uL, an RBC (6 h) of 594.6 x10_4/ul and a Ret (6 h) of 9.1%. For the same compound, the WBC (6 h) was 88.4 x10_2/uL, the KIDNEY_L (6 h) was 0.9 g and the KIDNEY_R (6 h) was 0.9 g. For the same compound, the KIDNEY_TOTAL (6 h) was 1.8 g, the LIVER (6 h) was 8.8 g and the A/G (6 h) was 1. For the same compound, the ALP (6 h) was 1338 IU/L, the ALT (6 h) was 41.2 IU/L and the AST (6 h) was 72.8 IU/L. For the same compound, the BUN (6 h) was 8.2 mg/dL, the CRE (6 h) was 0.2 mg/dL and the Ca (6 h) was 10.6 mg/dL. The Cl (6 h) was 104.4 meq/L, the DBIL (6 h) was 0.01 mg/dL and the GLC (6 h) was 173.8 mg/dL. It also gave an IP (6 h) of 9.4 mg/dL, a K (6 h) of 3.9 meq/L and an LDH (6 h) of 57.6 IU/L. It also gave a Na (6 h) of 140.4 meq/L, a PL (6 h) of 138.6 mg/dL and an RALB (6 h) of 2.6 g/dL. It also gave a TBIL (6 h) of 0.038 mg/dL, a TC (6 h) of 84.2 mg/dL and a TG (6 h) of 46.8 mg/dL. For the same compound, the TP (6 h) was 5.3 g/dL, the gamma-GTP (6 h) was 1.2 IU/L and the TERMINAL_BW (9 h) was 210.1 g. The APTT (9 h) was 17.2 s, the Bas (9 h) was 0% and the Eos (9 h) was 1%. For the same compound, the Fbg (9 h) was 293.8 mg/dL, the Hb (9 h) was 12.8 g/dL and the Ht (9 h) was 37.5%. The Lym (9 h) was 75.4%, the MCH (9 h) was 21.5 pg and the MCHC (9 h) was 34.2%. For the same compound, the MCV (9 h) was 62.8 fL, the Mono (9 h) was 3.2% and the Neu (9 h) was 20.2%. For the same compound, the PT (9 h) was 13.3 s, the Plat (9 h) was 127.3 x10_4/uL and the RBC (9 h) was 598.8 x10_4/ul. For the same compound, the Ret (9 h) was 9.5%, the WBC (9 h) was 89 x10_2/uL and the KIDNEY_L (9 h) was 0.9 g. For the same compound, the KIDNEY_R (9 h) was 0.9 g, the KIDNEY_TOTAL (9 h) was 1.7 g and the LIVER (9 h) was 8.1 g. The A/G (9 h) was 1, the ALP (9 h) was 1391.4 IU/L and the ALT (9 h) was 41.6 IU/L. It also gave an AST (9 h) of 74.8 IU/L, a BUN (9 h) of 8.2 mg/dL and a CRE (9 h) of 0.2 mg/dL. The Ca (9 h) was 10.3 mg/dL, the Cl (9 h) was 104.4 meq/L and the DBIL (9 h) was 0.01 mg/dL. The GLC (9 h) was 168.8 mg/dL, the IP (9 h) was 10.7 mg/dL and the K (9 h) was 3.8 meq/L. It also gave an LDH (9 h) of 53.8 IU/L, a Na (9 h) of 140.8 meq/L and a PL (9 h) of 121.6 mg/dL. For the same compound, the RALB (9 h) was 2.7 g/dL, the TBIL (9 h) was 0.04 mg/dL and the TC (9 h) was 74.2 mg/dL. It also gave a TG (9 h) of 27.6 mg/dL, a TP (9 h) of 5.3 g/dL and a gamma-GTP (9 h) of 1.6 IU/L. It also gave a TERMINAL_BW (24 h) of 216.7 g, an APTT (24 h) of 17.2 s and a Bas (24 h) of 0%. The Eos (24 h) was 1%, the Fbg (24 h) was 274.6 mg/dL and the Hb (24 h) was 12.8 g/dL. It also gave a Ht (24 h) of 37.7%, a Lym (24 h) of 74.2% and an MCH (24 h) of 21.8 pg. For the same compound, the MCHC (24 h) was 34%, the MCV (24 h) was 64.2 fL and the Mono (24 h) was 3.8%. For the same compound, the Neu (24 h) was 20.4%, the PT (24 h) was 13 s and the Plat (24 h) was 114.9 x10_4/uL. For the same compound, the RBC (24 h) was 588.4 x10_4/ul, the Ret (24 h) was 8.8% and the WBC (24 h) was 92.6 x10_2/uL. The KIDNEY_L (24 h) was 0.9 g, the KIDNEY_R (24 h) was 0.9 g and the KIDNEY_TOTAL (24 h) was 1.9 g. The LIVER (24 h) was 9.9 g, the A/G (24 h) was 1 and the ALP (24 h) was 1629.4 IU/L. The ALT (24 h) was 50.4 IU/L, the AST (24 h) was 79 IU/L and the BUN (24 h) was 15 mg/dL. It also gave a CRE (24 h) of 0.2 mg/dL, a Ca (24 h) of 10.7 mg/dL and a Cl (24 h) of 105 meq/L. For the same compound, the DBIL (24 h) was 0.018 mg/dL, the GLC (24 h) was 174.6 mg/dL and the IP (24 h) was 8.2 mg/dL. For the same compound, the K (24 h) was 4 meq/L, the LDH (24 h) was 58.8 IU/L and the Na (24 h) was 141 meq/L. The PL (24 h) was 144.6 mg/dL, the RALB (24 h) was 2.7 g/dL and the TBIL (24 h) was 0.032 mg/dL. The TC (24 h) was 82.6 mg/dL, the TG (24 h) was 89 mg/dL and the TP (24 h) was 5.4 g/dL. The gamma-GTP (24 h) was 1 IU/L.
